# Measured values: patent US20260265329A1, “POLYPEPTIDE AND DERIVATIVE THEREOF, COMPOSITION, AND USE THEREOF” (HANGZHOU SCIWIND BIOSCIENCES CO., LTD., priority 2023, published 2026)
# pEC50: −log10 of the molar value. Starred links: 1 amine or outer side, 2 acyl side, 3 side chain; linkers in the order of their positions; H or OH if unused. Non-standard residues stand in square brackets, D forms with d. Residues, ends and D or L forms follow the SMILES beside them. *: point of attachment. C20 diacid = O=C(O)CCCCCCCCCCCCCCCCCCC(=O)*; C18 diacid = O=C(O)CCCCCCCCCCCCCCCCC(=O)*; γGlu = O=C(O)[C@H](CCC(=O)[*:2])N[*:1]; Hyp = O=C(O)[C@@H]1C[C@@H](O)CN1; AEEA = NCCOCCOCC(=O)O; Inp = O=C(O)C1CCNCC1
# Target: T1, human amylin receptors (Homo sapiens, UniProt O60896+P30988)
# T1 construct: host or cells: CHO-K1/Ga15/AMY3 cells, further stably transfected with a CRE-luciferase plasmid
# T1 sequence (P30988 25-474): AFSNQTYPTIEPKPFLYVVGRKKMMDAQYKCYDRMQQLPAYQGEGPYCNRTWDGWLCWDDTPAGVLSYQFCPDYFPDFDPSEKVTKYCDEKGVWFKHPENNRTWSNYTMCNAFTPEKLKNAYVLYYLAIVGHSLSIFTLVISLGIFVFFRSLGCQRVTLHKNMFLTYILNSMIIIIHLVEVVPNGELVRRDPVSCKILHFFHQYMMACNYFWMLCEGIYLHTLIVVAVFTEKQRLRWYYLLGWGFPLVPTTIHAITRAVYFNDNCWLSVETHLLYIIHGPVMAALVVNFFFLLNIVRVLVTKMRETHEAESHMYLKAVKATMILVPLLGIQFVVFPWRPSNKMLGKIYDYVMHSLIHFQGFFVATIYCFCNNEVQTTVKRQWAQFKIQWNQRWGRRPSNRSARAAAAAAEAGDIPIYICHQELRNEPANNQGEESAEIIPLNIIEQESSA
# T1 sequence (O60896 24-148 partner): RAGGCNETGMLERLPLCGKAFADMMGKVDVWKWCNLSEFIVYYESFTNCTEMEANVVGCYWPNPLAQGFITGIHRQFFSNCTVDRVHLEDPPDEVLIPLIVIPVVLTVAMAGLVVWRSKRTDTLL
# Experiment: Luciferase assay in stably transfected amylin receptor/CRE-luc CHO cell line
# Assay type: cell-based
# Details: for Relative activity: EC50 ratio of Cagrilintide to the compound, Cagrilintide 100%; for pEC50: amylin receptor/CRE-luc CHO cells, 24 hours incubation, luminescence
Structure (SMILES),Relative activity,pEC50
CC[C@H](C)[C@H](NC(=O)[C@@H]1CCCN1C(=O)[C@H](CCCCN)NC(=O)[C@H](CC(C)C)NC(=O)[C@H](CC(N)=O)NC(=O)[C@H](CC(N)=O)NC(=O)[C@H](CO)NC(=O)[C@H](CO)NC(=O)[C@H](Cc1c[nH]cn1)NC(=O)[C@H](CCCNC(=N)N)NC(=O)[C@H](CC(C)C)NC(=O)[C@H](Cc1ccccc1)NC(=O)[C@H](CC(=O)O)NC(=O)[C@H](C)NC(=O)[C@H](CC(C)C)NC(=O)[C@H](CCCNC(=N)N)NC(=O)[C@H](CCC(N)=O)NC(=O)[C@@H](NC(=O)[C@H](C)NC(=O)[C@H](C)NC(=O)[C@@H](NC(=O)[C@H](CO)NC(=O)[C@H](CC(C)C)NC(=O)[C@H](CCC(N)=O)NC(=O)[C@H](CO)NC(=O)[C@H](C)NC(=O)[C@H](CC(=O)O)NC(=O)CCCCCCCCCCCCCCCCCCC(=O)O)[C@@H](C)O)[C@@H](C)O)C(=O)N[C@@H](CC(C)C)C(=O)N1CCC[C@H]1C(=O)N1CCC[C@H]1C(=O)N[C@H](C(=O)N[C@@H](CC(N)=O)C(=O)N[C@H](C(=O)NCC(=O)N[C@@H](CO)C(=O)N[C@@H](CC(N)=O)C(=O)N[C@H](C(=O)N1C[C@H](O)C[C@H]1C(N)=O)[C@@H](C)O)C(C)C)[C@@H](C)O [M28] ({C20 diacid}-DASQLSTAATQRLADFLRHSSNNLKPILPPTNVGSNT[Hyp]-NH2),128%,10.41
CC[C@H](C)[C@H](NC(=O)[C@H](CC(=O)O)NC(=O)[C@H](CCCNC(=N)N)NC(=O)[C@H](CC(=O)O)NC(=O)[C@H](CCCNC(=N)N)NC(=O)[C@H](CC(=O)O)NC(=O)[C@@H](NC(=O)[C@H](Cc1ccccc1)NC(=O)[C@H](Cc1c[nH]cn1)NC(=O)[C@H](CCCNC(=N)N)NC(=O)[C@H](CC(C)C)NC(=O)[C@H](Cc1ccccc1)NC(=O)[C@H](CC(=O)O)NC(=O)[C@H](C)NC(=O)[C@H](CC(C)C)NC(=O)[C@H](CCCNC(=N)N)NC(=O)[C@H](CCC(N)=O)NC(=O)[C@@H](NC(=O)[C@H](C)NC(=O)[C@H](C)NC(=O)[C@@H](NC(=O)[C@H](CO)NC(=O)[C@H](CC(C)C)NC(=O)[C@H](CCC(N)=O)NC(=O)[C@H](CO)NC(=O)[C@H](C)NC(=O)[C@H](CC(=O)O)NC(=O)CCCCCCCCCCCCCCCCCCC(=O)O)[C@@H](C)O)[C@@H](C)O)[C@@H](C)O)C(=O)N[C@@H](CC(C)C)C(=O)N1CCC[C@H]1C(=O)N1CCC[C@H]1C(=O)N[C@H](C(=O)N[C@@H](CC(N)=O)C(=O)N[C@H](C(=O)NCC(=O)N[C@@H](CO)C(=O)N[C@@H](CC(N)=O)C(=O)N[C@H](C(=O)N1CCC[C@H]1C(N)=O)[C@@H](C)O)C(C)C)[C@@H](C)O [M13] ({C20 diacid}-DASQLSTAATQRLADFLRHFTDRDRDILPPTNVGSNTP-NH2),78%,10.47
CC[C@H](C)[C@H](NC(=O)[C@@H]1CCCN1C(=O)[C@H](CCCCN)NC(=O)[C@H](CC(C)C)NC(=O)[C@H](CC(N)=O)NC(=O)[C@H](CC(N)=O)NC(=O)[C@H](CO)NC(=O)[C@H](CO)NC(=O)[C@H](Cc1c[nH]cn1)NC(=O)[C@H](CCCNC(=N)N)NC(=O)[C@H](CC(C)C)NC(=O)[C@H](Cc1ccccc1)NC(=O)[C@H](CC(=O)O)NC(=O)[C@H](C)NC(=O)[C@H](CC(C)C)NC(=O)[C@H](CCCNC(=N)N)NC(=O)[C@H](CCC(N)=O)NC(=O)[C@@H](NC(=O)[C@H](C)NC(=O)[C@H](C)NC(=O)[C@@H](NC(=O)[C@H](CO)NC(=O)[C@H](CC(C)C)NC(=O)[C@H](CCC(N)=O)NC(=O)[C@H](CO)NC(=O)[C@H](C)NC(=O)COCCOCCNC(=O)COCCOCCNC(=O)CC[C@H](NC(=O)CCCCCCCCCCCCCCCCCCC(=O)O)C(=O)O)[C@@H](C)O)[C@@H](C)O)C(=O)N[C@@H](CC(C)C)C(=O)N1CCC[C@H]1C(=O)N1CCC[C@H]1C(=O)N[C@H](C(=O)N[C@@H](CC(N)=O)C(=O)N[C@H](C(=O)NCC(=O)N[C@@H](CO)C(=O)N[C@@H](CC(N)=O)C(=O)N[C@H](C(=O)N1C[C@H](O)C[C@H]1C(N)=O)[C@@H](C)O)C(C)C)[C@@H](C)O [M31] ({C20 diacid-γGlu-AEEA-AEEA}-ASQLSTAATQRLADFLRHSSNNLKPILPPTNVGSNT[Hyp]-NH2),30%,9.77
CC[C@H](C)[C@H](NC(=O)[C@H](CC(=O)O)NC(=O)[C@H](CCCNC(=N)N)NC(=O)[C@H](CC(=O)O)NC(=O)[C@H](CCCNC(=N)N)NC(=O)[C@H](CC(=O)O)NC(=O)[C@@H](NC(=O)[C@H](Cc1ccccc1)NC(=O)[C@H](Cc1c[nH]cn1)NC(=O)[C@H](CCCNC(=N)N)NC(=O)[C@H](CC(C)C)NC(=O)[C@H](Cc1ccccc1)NC(=O)[C@H](CC(=O)O)NC(=O)[C@H](C)NC(=O)[C@H](CC(C)C)NC(=O)[C@H](CCCNC(=N)N)NC(=O)[C@H](CCC(N)=O)NC(=O)[C@@H](NC(=O)[C@H](C)NC(=O)[C@H](C)NC(=O)[C@@H](NC(=O)[C@H](CO)NC(=O)[C@H](CC(C)C)NC(=O)[C@H](CCC(N)=O)NC(=O)[C@H](CO)NC(=O)[C@H](C)NC(=O)CC[C@H](NC(=O)CCCCCCCCCCCCCCCCC(=O)O)C(=O)O)[C@@H](C)O)[C@@H](C)O)[C@@H](C)O)C(=O)N[C@@H](CC(C)C)C(=O)N1CCC[C@H]1C(=O)N1CCC[C@H]1C(=O)N[C@H](C(=O)N[C@@H](CC(N)=O)C(=O)N[C@H](C(=O)NCC(=O)N[C@@H](CO)C(=O)N[C@@H](CC(N)=O)C(=O)N[C@H](C(=O)N1CCC[C@H]1C(N)=O)[C@@H](C)O)C(C)C)[C@@H](C)O [M22] ({C18 diacid-γGlu}-ASQLSTAATQRLADFLRHFTDRDRDILPPTNVGSNTP-NH2),198%,10.80
CC[C@H](C)[C@H](NC(=O)[C@H](CC(=O)O)NC(=O)[C@H](CCCNC(=N)N)NC(=O)[C@H](CC(=O)O)NC(=O)[C@H](CCCNC(=N)N)NC(=O)[C@H](CC(=O)O)NC(=O)[C@@H](NC(=O)[C@H](Cc1ccccc1)NC(=O)[C@H](Cc1c[nH]cn1)NC(=O)[C@H](CCCNC(=N)N)NC(=O)[C@H](CC(C)C)NC(=O)[C@H](Cc1ccccc1)NC(=O)[C@H](CC(=O)O)NC(=O)[C@H](C)NC(=O)[C@H](CC(C)C)NC(=O)[C@H](CCCNC(=N)N)NC(=O)[C@H](CCC(N)=O)NC(=O)[C@@H](NC(=O)[C@H](C)NC(=O)[C@H](C)NC(=O)[C@@H](NC(=O)[C@H](CO)NC(=O)[C@H](CC(C)C)NC(=O)[C@H](CCC(N)=O)NC(=O)[C@H](CO)NC(=O)[C@H](C)NC(=O)C1CCN(C(=O)CCCCCCCCCCCCCCCCCCC(=O)O)CC1)[C@@H](C)O)[C@@H](C)O)[C@@H](C)O)C(=O)N[C@@H](CC(C)C)C(=O)N1CCC[C@H]1C(=O)N1CCC[C@H]1C(=O)N[C@H](C(=O)N[C@@H](CC(N)=O)C(=O)N[C@H](C(=O)NCC(=O)N[C@@H](CO)C(=O)N[C@@H](CC(N)=O)C(=O)N[C@H](C(=O)N1CCC[C@H]1C(N)=O)[C@@H](C)O)C(C)C)[C@@H](C)O [M15] ({C20 diacid-Inp}-ASQLSTAATQRLADFLRHFTDRDRDILPPTNVGSNTP-NH2),81%,10.52
CC[C@H](C)[C@H](NC(=O)[C@H](CC(=O)O)NC(=O)[C@H](CCCNC(=N)N)NC(=O)[C@H](CC(=O)O)NC(=O)[C@H](CCCNC(=N)N)NC(=O)[C@H](CC(=O)O)NC(=O)[C@@H](NC(=O)[C@H](Cc1ccccc1)NC(=O)[C@H](Cc1c[nH]cn1)NC(=O)[C@H](CCCNC(=N)N)NC(=O)[C@H](CC(C)C)NC(=O)[C@H](Cc1ccccc1)NC(=O)[C@H](CC(=O)O)NC(=O)[C@H](C)NC(=O)[C@H](CC(C)C)NC(=O)[C@H](CCCNC(=N)N)NC(=O)[C@H](CCC(N)=O)NC(=O)[C@@H](NC(=O)[C@H](C)NC(=O)[C@H](C)NC(=O)[C@@H](NC(=O)[C@H](CO)NC(=O)[C@H](CC(C)C)NC(=O)[C@H](CCC(N)=O)NC(=O)[C@H](CO)NC(=O)[C@H](C)NC(=O)COCCOCCNC(=O)COCCOCCNC(=O)[C@H](CCC(=O)O)NC(=O)CCCCCCCCCCCCCCCCCCC(=O)O)[C@@H](C)O)[C@@H](C)O)[C@@H](C)O)C(=O)N[C@@H](CC(C)C)C(=O)N1CCC[C@H]1C(=O)N1CCC[C@H]1C(=O)N[C@H](C(=O)N[C@@H](CC(N)=O)C(=O)N[C@H](C(=O)NCC(=O)N[C@@H](CO)C(=O)N[C@@H](CC(N)=O)C(=O)N[C@H](C(=O)N1CCC[C@H]1C(N)=O)[C@@H](C)O)C(C)C)[C@@H](C)O [M17] ({C20 diacid}-E[AEEA][AEEA]ASQLSTAATQRLADFLRHFTDRDRDILPPTNVGSNTP-NH2),94%,10.59
CC[C@H](C)[C@H](NC(=O)[C@@H]1CCCN1C(=O)[C@H](CCCCN)NC(=O)[C@H](CC(C)C)NC(=O)[C@H](CC(N)=O)NC(=O)[C@H](CC(N)=O)NC(=O)[C@H](CO)NC(=O)[C@H](CO)NC(=O)[C@H](Cc1c[nH]cn1)NC(=O)[C@H](CCCNC(=N)N)NC(=O)[C@H](CC(C)C)NC(=O)[C@H](Cc1ccccc1)NC(=O)[C@H](CC(=O)O)NC(=O)[C@H](C)NC(=O)[C@H](CC(C)C)NC(=O)[C@H](CCCNC(=N)N)NC(=O)[C@H](CCC(N)=O)NC(=O)[C@@H](NC(=O)[C@H](C)NC(=O)[C@H](C)NC(=O)[C@@H](NC(=O)[C@H](CO)NC(=O)[C@H](CC(C)C)NC(=O)[C@H](CCC(N)=O)NC(=O)[C@H](CO)NC(=O)[C@H](C)NC(=O)COCCOCCNC(=O)COCCOCCNC(=O)[C@H](CC(=O)O)NC(=O)CCCCCCCCCCCCCCCCCCC(=O)O)[C@@H](C)O)[C@@H](C)O)C(=O)N[C@@H](CC(C)C)C(=O)N1CCC[C@H]1C(=O)N1CCC[C@H]1C(=O)N[C@H](C(=O)N[C@@H](CC(N)=O)C(=O)N[C@H](C(=O)NCC(=O)N[C@@H](CO)C(=O)N[C@@H](CC(N)=O)C(=O)N[C@H](C(=O)N1C[C@H](O)C[C@H]1C(N)=O)[C@@H](C)O)C(C)C)[C@@H](C)O [M34] ({C20 diacid}-D[AEEA][AEEA]ASQLSTAATQRLADFLRHSSNNLKPILPPTNVGSNT[Hyp]-NH2),40%,9.88
